According to patent US20240124442A1, “TRICYCLIC-AMIDO-BICYCLIC PRMT5 INHIBITORS” (AMGEN INC., priority 2021, published 2024):

Columns and labels:
HCT116 MTAP null cells = assay: HCT116 MTAP null cell line proliferation / cell viability (CellTiter-Glo, 6 days); type: cell-based; settings: 144 h; HCT116 MTAP null cells, 6 days treatment, CellTiter-Glo cell viability; read-out: HCT-116 MTAP null IC50
Method in brief: (§1)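 Isogenic HCT116 pair (parental and MTAP-knockout) in RPMI 1640 + 10% FBS, treated 6 days with 8–9-point 1:3 dilutions from 1 or 10 μM top, or 22-point 1:2 dilutions from 10 or 50 μM top. Viability by CellTiter-Glo luminescence; IC50 from 4-parameter logistic fit or sigmoidal fit with Hill slope fixed at −1.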

HCT116 WT cells = assay: HCT116 WT (parent) cell line proliferation / cell viability (CellTiter-Glo, 6 days); type: cell-based; settings: Homo sapiens, HCT-116, 144 h, 6 days treatment
Method in brief: as §1

SMILES | IC50 (HCT116 MTAP null cells) | IC50 (HCT116 WT cells)
CC(=O)Nc1ccc(-c2ccc3c(c2)OC[C@H]3N(C)C(=O)c2ccc3nc(N)c4cnn(C)c4c3c2)cn1 [Example 647, N-((3S)-6-(6-acetamido-3-pyridinyl)-2,3-dihydro-1-benzofuran-3-yl)-4-amino-N,1-dimethyl-1H-pyrazolo[4,3-c]quinoline-8-carboxamide] | 8 nM | 582 nM
CN(C(=O)c1ccc2nc(N)c3cnn(C)c3c2c1)[C@@H]1COc2cc(-c3cccc(C(F)(F)F)n3)ccc21 [Example 648, 4-amino-N,1-dimethyl-N-((3S)-6-(6-(trifluoromethyl)-2-pyridinyl)-2,3-dihydro-1-benzofuran-3-yl)-1H-pyrazolo[4,3-c]quinoline-8-carboxamide] | 30 nM | 1170 nM
CN(C(=O)c1ccc2nc(N)c3cnn(C)c3c2c1)[C@@H]1COc2cc(-c3cccnc3C(F)(F)F)ccc21 [Example 649, 4-amino-N,1-dimethyl-N-((3S)-6-(2-(trifluoromethyl)-3-pyridinyl)-2,3-dihydro-1-benzofuran-3-yl)-1H-pyrazolo[4,3-c]quinoline-8-carboxamide] | 18 nM | 1040 nM
CN(C(=O)c1ccc2nc(N)c3cnn(C)c3c2c1)[C@@H]1COc2cc(-c3cnccc3C(F)(F)F)ccc21 [Example 650, 4-amino-N,1-dimethyl-N-((3S)-6-(4-(trifluoromethyl)-3-pyridinyl)-2,3-dihydro-1-benzofuran-3-yl)-1H-pyrazolo[4,3-c]quinoline-8-carboxamide] | 8 nM | 447 nM
CN(C(=O)c1ccc2nc(N)c3cnn(C)c3c2c1)[C@@H]1COc2cc(-c3cncc(C(F)(F)F)c3)ccc21 [Example 651, 4-amino-N,1-dimethyl-N-((3S)-6-(5-(trifluoromethyl)-3-pyridinyl)-2,3-dihydro-1-benzofuran-3-yl)-1H-pyrazolo[4,3-c]quinoline-8-carboxamide] | 7 nM | 724 nM
CN(C(=O)c1ccc2nc(N)c3cnn(C)c3c2c1)[C@@H]1COc2cc(-c3ccc(C(F)(F)F)cn3)ccc21 [Example 652, 4-amino-N,1-dimethyl-N-((3S)-6-(5-(trifluoromethyl)-2-pyridinyl)-2,3-dihydro-1-benzofuran-3-yl)-1H-pyrazolo[4,3-c]quinoline-8-carboxamide] | 6 nM | 291 nM
CN(C(=O)c1ccc2nc(N)c3cnn(C)c3c2c1)[C@@H]1COc2cc(-c3c(C(F)(F)F)cnn3C)ccc21 [Example 653, 4-amino-N,1-dimethyl-N-((3S)-6-(1-methyl-4-(trifluoromethyl)-1H-pyrazol-5-yl)-2,3-dihydro-1-benzofuran-3-yl)-1H-pyrazolo[4,3-c]quinoline-8-carboxamide] | 19 nM | 735 nM
CN(C(=O)c1ccc2nc(N)c3cnn(C)c3c2c1)[C@@H]1COc2cc(-c3cc(C(F)(F)F)nn3C)ccc21 [Example 654, 4-amino-N,1-dimethyl-N-((3S)-6-(1-methyl-3-(trifluoromethyl)-1H-pyrazol-5-yl)-2,3-dihydro-1-benzofuran-3-yl)-1H-pyrazolo[4,3-c]quinoline-8-carboxamide] | 10 nM | 1000 nM
CN(C(=O)c1ccc2nc(N)c3cnn(C)c3c2c1)[C@@H]1COc2cc(-c3csc(C(F)(F)F)n3)ccc21 [Example 655, 4-amino-N,1-dimethyl-N-((3S)-6-(2-(trifluoromethyl)-1,3-thiazol-4-yl)-2,3-dihydro-1-benzofuran-3-yl)-1H-pyrazolo[4,3-c]quinoline-8-carboxamide] | 28 nM | 946 nM
CN(C(=O)c1ccc2nc(N)c3cnn(C)c3c2c1)[C@@H]1COc2cc(-c3cnc(C(F)(F)F)s3)ccc21 [Example 656, 4-amino-N,1-dimethyl-N-((3S)-6-(2-(trifluoromethyl)-1,3-thiazol-5-yl)-2,3-dihydro-1-benzofuran-3-yl)-1H-pyrazolo[4,3-c]quinoline-8-carboxamide] | 6 nM | 511 nM
CN(C(=O)c1ccc2nc(N)c3cnn(C)c3c2c1)[C@@H]1COc2cc(-c3ccc4c(c3)OC(F)(F)O4)ccc21 [Example 657, 4-amino-N-((3S)-6-(2,2-difluoro-1,3-benzodioxol-5-yl)-2,3-dihydro-1-benzofuran-3-yl)-N,1-dimethyl-1H-pyrazolo[4,3-c]quinoline-8-carboxamide] | 37 nM | 1710 nM
CN(C(=O)c1ccc2nc(N)c3cnn(C)c3c2c1)[C@@H]1COc2cc(-c3ccc(OC(F)(F)F)cc3)ccc21 [Example 658, 4-amino-N,1-dimethyl-N-((3S)-6-(4-(trifluoromethoxy)phenyl)-2,3-dihydro-1-benzofuran-3-yl)-1H-pyrazolo[4,3-c]quinoline-8-carboxamide] | 42 nM | 630 nM
CN(C(=O)c1ccc2nc(N)c3cnn(C)c3c2c1)[C@@H]1COc2cc(-c3cc(F)cc(OC(F)F)c3)ccc21 [Example 659, 4-amino-N-((3S)-6-(3-(difluoromethoxy)-5-fluorophenyl)-2,3-dihydro-1-benzofuran-3-yl)-N,1-dimethyl-1H-pyrazolo[4,3-c]quinoline-8-carboxamide] | 25 nM | 1280 nM
CN(C(=O)c1ccc2nc(N)c3cnn(C)c3c2c1)[C@@H]1COc2cc(-c3cc(C(F)(F)F)ccc3F)ccc21 [Example 660, 4-amino-N-((3S)-6-(2-fluoro-5-(trifluoromethyl)phenyl)-2,3-dihydro-1-benzofuran-3-yl)-N,1-dimethyl-1H-pyrazolo[4,3-c]quinoline-8-carboxamide] | 15 nM | 657 nM
CN(C(=O)c1ccc2nc(N)c3cnn(C)c3c2c1)[C@@H]1COc2cc(-c3ccc(C(F)(F)F)cc3F)ccc21 [Example 661, 4-amino-N-((3S)-6-(2-fluoro-4-(trifluoromethyl)phenyl)-2,3-dihydro-1-benzofuran-3-yl)-N,1-dimethyl-1H-pyrazolo[4,3-c]quinoline-8-carboxamide] | 14 nM | 481 nM
CN(C(=O)c1ccc2nc(N)c3cnn(C)c3c2c1)[C@@H]1COc2cc(-c3ccnc(OCC(F)(F)F)c3)ccc21 [Example 662, 4-amino-N,1-dimethyl-N-((3S)-6-(2-(2,2,2-trifluoroethoxy)-4-pyridinyl)-2,3-dihydro-1-benzofuran-3-yl)-1H-pyrazolo[4,3-c]quinoline-8-carboxamide] | 21 nM | 1120 nM
CN(C(=O)c1cc2c3c(c(N)nc2cc1F)COC3)[C@@H]1COc2cc(-c3ccc(S(F)(F)(F)(F)F)cc3)ccc21 [Example 667, 4-amino-7-fluoro-N-methyl-N-((3S)-6-(4-(pentafluoro-lambda~6 ~- sulfanyl)phenyl)-2,3-dihydro-1-benzofuran-3-yl)-1,3-dihydrofuro[3,4-c]quinoline-8-carboxamide] | 383 nM | 7060 nM
CN(C(=O)c1ccc2nc(N)c3cnn(C)c3c2c1)[C@@H]1COc2cc(-c3ccc(S(F)(F)(F)(F)F)cc3)ccc21 [Example 668, 4-amino-N,1-dimethyl-N-((3S)-6-(4-(pentafluoro-lambda~6~- sulfanyl)phenyl)-2,3-dihydro-1-benzofuran-3-yl)-1H-pyrazolo[4,3-c]quinoline-8-carboxamide] | 85 nM | 2920 nM
COc1ccc2c(c1)OC[C@H]2N(C)C(=O)c1ccc2nc(N)c3cnn(C)c3c2c1 [Example 671, (S)-4-amino-N-(6-methoxy-2,3-dihydrobenzofuran-3-yl)-N,1-dimethyl-1H-pyrazolo[4,3-c]quinoline-8-carboxamide] | 34 nM | 4280 nM
CN(C(=O)c1ccc2nc(N)c3cnn(C)c3c2c1)[C@@H]1COc2cc(OC3CC3)ccc21 [Example 672, (S)-4-amino-N-(6-cyclopropoxy-2,3-dihydrobenzofuran-3-yl)-N,1-dimethyl-1H-pyrazolo[4,3-c]quinoline-8-carboxamide 2,2,2-trifluoroacetate] | 44 nM | 3520 nM
CN(C(=O)c1ccc2nc(N)c3cnn(C)c3c2c1)[C@@H]1COc2ccccc21 [Example 673, (S)-4-amino-N-(2,3-dihydrobenzofuran-3-yl)-N,1-dimethyl-1H-pyrazolo[4,3-c]quinoline-8-carboxamide 2,2,2-trifluoroacetate] | 120 nM | 13100 nM
CCOc1ccc2c(c1)OC[C@H]2N(C)C(=O)c1cc2c3c(c(N)nc2cn1)COC3 [Example 674, 4-amino-N-((3S)-6-ethoxy-2,3-dihydro-1-benzofuran-3-yl)-N-methyl-1,3-dihydrofuro[3,4-c][1,7]naphthyridine-8-carboxamide] | 156 nM | 8610 nM
CCOc1ccc2c(c1)OC[C@H]2N(C)C(=O)c1ccc2nc(N)c3cnn(C)c3c2c1 [Example 675, 4-amino-N-((3S)-6-ethoxy-2,3-dihydro-1-benzofuran-3-yl)-N,1-dimethyl-1H-pyrazolo[4,3-c]quinoline-8-carboxamide] | 25 nM | 2750 nM
CN(C(=O)c1ccc2nc(N)c3cnn(C)c3c2c1)[C@@H]1COc2cc(OC3CCC3)ccc21 [Example 676, 4-amino-N-((3S)-6-(cyclobutyloxy)-2,3-dihydro-1-benzofuran-3-yl)-N,1-dimethyl-1H-pyrazolo[4,3-c]quinoline-8-carboxamide] | 40 nM | 2590 nM
CN(C(=O)c1ccc2nc(N)c3cnn(C)c3c2c1)[C@@H]1COc2cc(OC3COC3)ccc21 [Example 677, 4-amino-N,1-dimethyl-N-((3S)-6-(3-oxetanyloxy)-2,3-dihydro-1-benzofuran-3-yl)-1H-pyrazolo[4,3-c]quinoline-8-carboxamide] | 137 nM | 9810 nM
COCCOc1ccc2c(c1)OC[C@H]2N(C)C(=O)c1ccc2nc(N)c3cnn(C)c3c2c1 [Example 678, 4-amino-N-((3S)-6-(2-methoxyethoxy)-2,3-dihydro-1-benzofuran-3-yl)-N,1-dimethyl-1H-pyrazolo[4,3-c]quinoline-8-carboxamide] | 29 nM | 2780 nM
